Experimental data reported in ChEMBL document CHEMBL1146676, “3-Amino-2-hydroxyamides and related compounds as inhibitors of methionine aminopeptidase-2” (Bioorg Med Chem Lett, 2004).

Biological target: Methionine aminopeptidase 1 (Homo sapiens, UniProt P53582)
Experiment: Inhibitory activity against human methionine aminopeptidase-1

SMILES | IC50
CCOC(=O)[C@@H](C)NC(=O)[C@@H](O)[C@H](N)CC1CCCCC1 | > 100 µM
CN(Cc1cccc2ccccc12)C(=O)[C@@H](O)[C@H](N)CCc1ccccc1 | > 100 µM
N[C@H](CCc1ccccc1)[C@H](O)C(=O)N[C@@H](CO)c1ccccc1 | 75 µM
CCCC[C@@H](N)C(O)C(=O)N[C@@H](C)C(=O)OCC (stereo partly specified) | 100 µM
N[C@H](CC1CCCCC1)[C@H](O)C(=O)NNC(=O)c1cc(Cl)ccc1Cl | > 100 µM
CCOC(=O)[C@H](C)NC(=O)C(O)[C@H](N)CSCC1CCCCC1 (stereo partly specified) | > 100 µM
N[C@H](CC1CCCCC1)[C@H](O)C(=O)N[C@@H](CO)c1ccccc1 | 68 µM
CCOC(=O)[C@H](C)NC(=O)C(O)[C@H](N)CCc1ccccc1 (stereo partly specified) | 101 µM
CCOC(=O)C(C)(C)NC(=O)[C@@H](O)[C@H](N)CC1CCCCC1 | > 100 µM
CCOC(=O)[C@H](C)NC(=O)C(O)[C@H](N)CSCC(C)C (stereo partly specified) | 66 µM
N[C@H](CC1CCCCC1)[C@H](O)C(=O)NCCc1ccc(Cl)cc1Cl | 63 µM
CN(Cc1cccc2ccccc12)C(=O)[C@@H](O)[C@H](N)CC1CCCCC1 | 78 µM
CCOC(=O)[C@H](C)NC(=O)C(O)[C@H](N)CCSCC (stereo partly specified) | 69 µM
C[C@H](NC(=O)[C@@H](O)[C@H](N)CC1CCCCC1)C(=O)O | > 100 µM
N[C@H](C1CCCCC1)C(O)C(=O)NOc1ccccc1 (stereo partly specified) | 95 µM
N[C@H](C1CCCCC1)[C@H](O)C(=O)N[C@@H](CO)c1ccccc1 | 79 µM
N[C@H](C1CCCCC1)[C@H](O)C(=O)NNc1cccc2ccccc12 | 89 µM
CC(C)SCC[C@@H](N)[C@H](O)C(=O)N(C)Cc1cccc2ccccc12 | 81 µM
N[C@H](CC1CCCCC1)[C@H](O)C(=O)NNC(=O)c1ccc2ccccc2c1 | 63 µM
N[C@H](CCc1ccccc1)[C@H](O)C(=O)NNc1cccc2ccccc12 | 93 µM
CCOC(=O)[C@H](C)NC(=O)[C@@H](O)[C@H](N)CC1CCCCC1 | 84 µM
N[C@H](CSCC1CCCCC1)[C@H](O)C(=O)NCCc1ccc(Cl)cc1Cl | > 100 µM
N[C@H](CC1CCCCC1)[C@H](O)C(=O)NNC(=O)c1cccc(Cl)c1 | > 100 µM
CCOC(=O)[C@H](C)NC(=O)C(O)[C@H](N)CC1CCCCC1 (stereo partly specified) | 84 µM
CCOC(=O)[C@H](C)NC(=O)C(O)[C@H](N)CCC1CCCCC1 (stereo partly specified) | 137 µM
COc1cccc(NC(=O)[C@@H](O)[C@H](N)CC2CCCCC2)c1 | 90 µM
N[C@H](C1CCCCCCC1)C(O)C(=O)NOc1ccccc1 (single isomer, unassigned) | > 100 µM
CC(C)SCC[C@@H](N)C(O)C(=O)NCCc1ccc(Cl)cc1Cl (single isomer, unassigned) | 69 µM

Next, values leading:

IC50 | SMILES
5 µM | CCCSC[C@@H](N)[C@H](O)C(=O)NNc1ccc(C)cc1
20 µM | N[C@H](CC1CCCCC1)[C@H](O)C(=O)NOc1ccccc1
1.3 µM | CCSCC[C@@H](N)[C@H](O)C(=O)NOc1ccccc1
32 µM | CC(C)SCC[C@@H](N)[C@H](O)C(=O)N[C@@H](CO)c1ccccc1
6.8 µM | Cc1ccc(NNC(=O)[C@@H](O)[C@H](N)CSCC(C)C)cc1
53 µM | CC(C)CSC[C@@H](N)[C@H](O)C(=O)NCCc1ccc(Cl)cc1Cl
14 µM | CCOC(=O)[C@H](C)NC(=O)C(O)[C@H](N)CSC(C)(C)C (stereo partly specified)
12 µM | CCSCC[C@@H](N)[C@H](O)C(=O)N(C)Cc1cccc2ccccc12
13 µM | CCOC(=O)[C@H](C)NC(=O)C(O)[C@H](N)CSC(C)C (stereo partly specified)
1.3 µM | CCSCC[C@@H](N)[C@H](O)C(=O)NNc1ccc(C)cc1
12 µM | CCCSC[C@@H](N)[C@H](O)C(=O)N[C@@H](CO)c1ccccc1
63 µM | CCOC(=O)[C@H](C)NC(=O)C(O)[C@H](N)CCSC (stereo partly specified)
5.3 µM | CC(NC(=O)[C@@H](O)[C@H](N)CC1CCCCC1)c1ccc2ccccc2c1 (stereo partly specified)
58 µM | N[C@H](CC1CCCCC1)[C@H](O)C(=O)NNc1cccc2ccccc12
45 µM | C[C@H](NC(=O)[C@@H](O)[C@H](N)CSCC1CCCCC1)c1cccc2ccccc12
8.7 µM | CCSCC[C@@H](N)[C@H](O)C(=O)NNC(=O)c1cccc(Cl)c1
11 µM | CCCSC[C@@H](N)[C@H](O)C(=O)NNC(=O)c1cccc(Cl)c1
15 µM | CCSCC[C@@H](N)[C@H](O)C(=O)NNC(=O)c1ccc2ccccc2c1

IC50 | SMILES
24 µM | CCCSC[C@@H](N)[C@H](O)C(=O)NCCc1ccc(Cl)cc1Cl
1.7 µM | CCCSC[C@@H](N)[C@H](O)C(=O)NOc1ccccc1
18 µM | CC(C)SCC[C@@H](N)[C@H](O)C(=O)NNC(=O)c1ccc2ccccc2c1
16 µM | Cc1ccc(NNC(=O)[C@@H](O)[C@H](N)CCc2ccccc2)cc1
46 µM | N[C@H](C1CCCCC1)[C@H](O)C(=O)NNC(=O)c1cccc(Cl)c1
19 µM | CC(C)CSC[C@@H](N)[C@H](O)C(=O)N(C)Cc1cccc2ccccc12
1.5 µM | CC(C)CSC[C@@H](N)[C@H](O)C(=O)NOc1ccccc1
57 µM | CCCSC[C@@H](N)C(O)C(=O)N[C@@H](C)C(=O)OCC (stereo partly specified)
11 µM | Cc1ccc(NNC(=O)[C@@H](O)[C@H](N)CCSC(C)C)cc1
12 µM | N[C@H](CC1CCCCC1)[C@H](O)C(=O)NCc1ccc2ccccc2c1
56 µM | CC(C)SCC[C@@H](N)[C@H](O)C(=O)NNC(=O)c1cccc(Cl)c1
11 µM | CC(C)CSC[C@@H](N)[C@H](O)C(=O)N[C@@H](CO)c1ccccc1
34 µM | CC(C)CSC[C@@H](N)[C@H](O)C(=O)NNc1cccc2ccccc12
14 µM | Cc1ccc(NNC(=O)[C@@H](O)[C@H](N)CC2CCCCC2)cc1
8.9 µM | CCSCC[C@@H](N)[C@H](O)C(=O)NNc1cccc2ccccc12
4.7 µM | CC(C)SCC[C@@H](N)C(O)C(=O)NOc1ccccc1 (single isomer, unassigned)
12 µM | C[C@H](NC(=O)C(O)[C@H](N)CCc1ccccc1)c1cccc2ccccc12 (single isomer, unassigned)
13 µM | N[C@H](CCc1ccccc1)C(O)C(=O)NOc1ccccc1 (single isomer, unassigned)

Organism: Homo sapiens
Experiment: Inhibitory activity against proliferation of human microvascular endothelial cell

SMILES | IC50
CC(C)SCC[C@@H](N)[C@H](O)C(=O)NNC(=O)c1cccc(Cl)c1 | 0.1 µM

Biological target: Methionine aminopeptidase 2 (Homo sapiens, UniProt P50579)
Sequence (P50579 whole entry): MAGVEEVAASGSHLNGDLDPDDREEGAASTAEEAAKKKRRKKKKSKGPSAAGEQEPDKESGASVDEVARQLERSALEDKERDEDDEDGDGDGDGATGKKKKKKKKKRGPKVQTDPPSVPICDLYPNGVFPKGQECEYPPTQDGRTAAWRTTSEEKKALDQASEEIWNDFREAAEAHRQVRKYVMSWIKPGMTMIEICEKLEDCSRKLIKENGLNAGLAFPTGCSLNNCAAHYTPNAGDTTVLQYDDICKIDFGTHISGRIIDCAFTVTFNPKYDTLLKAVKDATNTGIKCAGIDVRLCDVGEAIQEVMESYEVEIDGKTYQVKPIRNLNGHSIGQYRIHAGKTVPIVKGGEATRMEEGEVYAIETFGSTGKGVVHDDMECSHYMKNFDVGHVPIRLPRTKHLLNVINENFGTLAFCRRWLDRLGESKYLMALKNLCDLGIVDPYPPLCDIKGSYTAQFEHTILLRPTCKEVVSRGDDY
Experiment: Inhibitory activity against human methionine aminopeptidase-2

IC50 | SMILES
> 100 µM | CC(C)[C@H](C)NC(=O)[C@@H](O)[C@H](N)CC1CCCCC1
